Where two headings read alike, the source gives them in different places.
How the values were obtained:
gamma-secretase [1] = experiment: Six-day once-a-day oral dosing PK/PD in Tg2576 mice (brain, plasma, CSF Aβ); format: in vivo; details: positive control, orally once on day six, 6 hrs post dose
Description: Female transgenic mice (Tg2576, 3 months of age; n = 20), wild-type male CD-1 mice (six weeks of age; n = 8 to 12) or wild-type male Sprague Dawley rats (200 to 225 g body weight; n = 12) were utilized to assess in vivo efficacy.
In the transgenic studies, compound was dosed in 10:20:70 ethanol/solutol/water via oral gavage. […] The mice were subjected to cisterna magna puncture and collection of cerebrospinal fluid (CSF) (approximately 5 μl per mouse). Individual CSF samples were flash-frozen on dry ice and stored at -80°C. Thereafter, the mice were subjected to cardiac puncture and blood samples were collected into K2EDTA tubes and stored on wet ice until processed to plasma by centrifugation (2,000 g at 4°C for 10 minutes) within 30 minutes of collection. The plasma was aliquoted for both Aβ measurements and parent drug using LC/MS/MS. Both sets of tubes were frozen at -80°C. The brains were perfused with non-heparinized saline (the blood flushed away) and removed carefully. Brains were rinsed with ice cold PBS (without Mg^2+ or Ca^2+), blotted dry, dissected on ice into three pieces (left and right hemisphere and cerebellum). Samples were frozen in liquid nitrogen immediately prior to storage at -80°C. Cerebella were analyzed for parent drug via LC/MS/MS. Parent drug levels were compared to a standard curve to establish the plasma, brain and CSF levels. […]

gamma-secretase [2] = experiment: Aβ peptides in conditioned media of CHO-2B7 cells (MSD 3-Plex); format: cell-based, Chinese hamster; details: for IC50: 5 hrs treatment, conditioned media
Description: CHO-2B7 cells (Mayo Clinic) are Chinese hamster ovary cells stably transfected with human βAPP 695wt. The cells were cultured in Ham's F12 media (Thermo Fisher SH30026.01, Waltham, MA, USA) supplemented with 10% FBS, 0.25 mg/mL Zeocin and 90 ug/mL penicillin/streptomycin at 37°C in a 5% CO2 atmosphere. For compound treatment, cells were plated in 96-well plates at a density of 1.0 × 10^5 cells/mL and allowed grow to 100% confluence over two days. Test compounds in dimethyl sulfoxide (DMSO) were diluted 100-fold directly into the media before being adding to the cells. Immediately prior to adding compound-containing media to the cells, the cells were washed once with 1X PBS. Conditioned media from CHO-2B7 cells were collected after 5 hrs of treatment and the levels of Aβ peptides were assessed as described below.
Conditioned media were collected after 5 hrs of treatment and diluted with one volume of MSD blocking buffer (1% BSA in MSD wash buffer). MSD Human (6E10) Aβ 3-Plex plates, which are pre-spotted with three separate spots in each well containing capture antibodies against the unique C-terminal ends of Aβ38, Aβ40 and Aβ42, respectively, were blocked with MSD blocking buffer for one hour. Samples were transferred to the blocked plates with 6E10 detection antibody and incubated for 2 hrs at room temperature with orbital shaking followed by washing and reading according to the manufacturer's instructions (SECTOR® Imager 2400 Meso Scale Discovery, Gaithersburg MD, USA).

gamma-secretase [3] = biological target: gamma-secretase; set-up: method as in PMID 22505028, PMID 19542625; details: weak modulator; cited from earlier work

CC(C)CC[C@H](c1ccc(Cl)cc1)N1CC[C@@H](CC(=O)O)C[C@H]1c1ccc(C(F)(F)F)cc1 [Merck GSM-1]
effect on Aβ38 levels (gamma-secretase [1]): increased Aβ38 levels
effect on Aβ42 levels (gamma-secretase [1]): significantly reduced Aβ42

CCO[C@@H]([C@H]1C[C@@H](C)[C@H]2[C@@H](O1)[C@H](O)[C@@]1(C)[C@@H]3CC[C@H]4C(C)(C)[C@@H](O[C@H]5CN(C6CN(C(C)C)C6)CCO5)CC[C@@]45C[C@@]35CC[C@]21C)C(C)(C)O [SPI-1865]
Total Aβ (gamma-secretase [2]; CHO-2B7 cells): only decreased at doses where cytotoxicity was observed
IC50 (gamma-secretase [2]; CHO-2B7 cells, read-out: IC50 Aβ38): 259 nM
IC50 (gamma-secretase [2]; CHO-2B7 cells, read-out: IC50 Aβ40): 2800 nM
IC50 (gamma-secretase [2]; CHO-2B7 cells, read-out: IC50 Aβ42): 106 nM
IC25 Aβ42 (gamma-secretase [2]; in vitro): 33 ± 18 nM

C[C@@H](C(=O)O)c1ccc(-c2ccccc2)c(F)c1 [Flurizan]
IC50 (gamma-secretase [3]): 250000 nM

From paper PMC3707052 (Alzheimer's Research & Therapy, 2013)
